Structures can show the parent of a compound that is named as a salt. Where two headings read alike, the source gives them in different places. Residues, ends and D or L forms follow the SMILES beside them. *: point of attachment. Cbz = O=C(OCc1ccccc1)*
Test system: Ebola virus
Assay: microbe, parasite or virus in culture
Format: cell-based, Ebolavirus (EBOV)
Details: for Emax: read-out: Max Effect

Compound | Max Effect | IC50 (Zaire ebolavirus, Vero) | Emax (Zaire ebolavirus, Vero) | other results
O=C(/C=C/c1ccc(O)c(O)c1)OCCc1ccccc1 [CAPE] | 0.368 |  |  | 
Nc1ccc(C(=O)N[C@@H](CCC(=O)O)C(=O)O)cc1 [N-(4-Aminobenzoyl)-L-glutamic acid] |  | 9.7 µM | 85.5% | 
CCCCCCCCCC(=O)NC(CN1CCOCC1)C(O)c1ccccc1.Cl (stereo not shown) [PDMP Hydrochloride] | 0.390 |  |  | 
Clc1ccc(C(Cn2ccnc2)OCc2ccsc2Cl)c(Cl)c1 (stereo not shown) [Tioconazole] |  | 8.5 µM | 72.9% | 
COc1ccc(OC)c2c(=S)c3ccccc3[nH]c12 [NSC 625987] | 0.418 |  |  | 
CCC(=O)O[C@](Cc1ccccc1)(c1ccccc1)[C@H](C)CN(C)C [Propoxyphene Hydrochloride] |  |  | 42.2% | 
CC(C)C[C@H]1C(=O)N2CCC[C@H]2[C@]2(O)O[C@](NC(=O)[C@@H]3C=C4c5cccc6[nH]c(Br)c(c56)C[C@H]4N(C)C3)(C(C)C)C(=O)N12 [Bromocriptine Mesylate] |  |  | 42.2% | 
Tunicamycin | 0.800 |  |  | IC50 (read-out: IC50): < 0.28 µM
O=c1[nH]c2ccccc2n1CCCN1CCN(C(c2ccccc2)c2ccccc2)CC1 [Oxatomide] |  | 2.1 µM | 62.2% | 
CC(C)C[C@@H](C=O)NC(=O)[C@H](CC(C)C)NC(=O)[C@H](CC(C)C)NC(=O)OCc1ccccc1 [MG-132] (Cbz-Leu-Leu-Leu-aldehyde) |  | < 0.6 µM | 90% | 
CC(=O)O.CC(=O)O.NC(=N\CCCCCC/N=C(N)/N=C(\N)Nc1ccc(Cl)cc1)/N=C(\N)Nc1ccc(Cl)cc1 [Chlorhexidine Diacetate] | 0.543 |  |  | IC50 (read-out: IC50): 6.1 µM
Nc1nc2ccc(Cl)cc2c2nc(-c3ccco3)nn12 [CGS 15943] |  |  | 44.9% | 
Fc1ccc(C(OCCN2CCN(CCCc3ccccc3)CC2)c2ccc(F)cc2)cc1 [Vanoxerine] |  | 5.8 µM | 56.4% | 
CN1CCC(CN2c3ccccc3Sc3ccccc32)C1 (stereo not shown) [Methdilazine Hydrochloride] |  | 7.1 µM | 51.9% | 
CC(C)C(=O)OCC(=O)[C@@]12O[C@H](C3CCCCC3)O[C@@H]1C[C@H]1[C@@H]3CCC4=CC(=O)C=C[C@]4(C)[C@H]3[C@@H](O)C[C@@]12C [Ciclesonide] |  | 16 µM | 51.2% | 
OCCN1CCN(CCCN2c3ccccc3Sc3ccc(Cl)cc32)CC1 [Perphenazine] |  | 5.8 µM | 79.3% | 
Gramicidin | 0.678 |  |  | 
CCOc1ccc(/C=C2\NCCc3cc(OCC)c(OCC)cc32)cc1OCC [Drotaverine Hydrochloride] |  |  | 36.7% | 
CNc1ccc2oc(C[C@H]3O[C@@]4(CC[C@H]3C)O[C@H]([C@H](C)C(=O)c3ccc[nH]3)[C@H](C)C[C@H]4C)nc2c1C(=O)O [Calcimycin A23187] | 0.789 |  |  | IC50 (read-out: IC50): 1.1 µM
CC1=C(/C=C/C(C)=C/C=C/C(C)=C/C(=O)Nc2ccc(O)cc2)C(C)(C)CCC1 [Fenretinide] |  |  | 42.6% | 
c1ccc2c(c1)[I+]c1ccccc1-2 [Diphenyleneiodonium chloride] |  | < 1.6 µM | 80% | 
Nonoxynol-9 | 0.535 |  |  | IC50 (read-out: IC50): 8.7 µM

Compound | Max Effect | IC50 (Zaire ebolavirus, Vero) | Emax (Zaire ebolavirus, Vero) | other results
COc1ccc(C[C@H](N)C(=O)N[C@H]2[C@@H](O)[C@H](n3cnc4c(N(C)C)ncnc43)O[C@@H]2CO)cc1 [Puromycin dihydrochloride] |  | 6.6 µM | 83.5% | 
COc1c(C)c2c(c(O)c1C/C=C(\C)CCC(=O)O)C(=O)OC2 [Mycophenolic Acid] |  | < 1 µM | 80% | 
C=C(C)[C@H]1Cc2c(ccc3c2O[C@@H]2COc4cc(OC)c(OC)cc4[C@@H]2C3=O)O1 [Rotenone] |  | < 2 µM | 70% | 
CCCOc1ccc2nc(NC(=O)OC)[nH]c2c1 [Oxibendazole] |  |  | 47.2% | 
COc1ccc(C[C@H]2NC[C@H](O)[C@H]2OC(C)=O)cc1 [Anisomycin] | 0.900 |  |  | IC50 (read-out: IC50): < 1.6 µM
CN1C[C@H](CNC(=O)OCc2ccccc2)C[C@@H]2c3cccc4c3c(cn4C)C[C@H]21 [Metergoline] |  | 6.1 µM | 57.7% | 
O=C([O-])O.[Na+] [Sodium Bicarbonate] | 0.389 |  |  | 
CNC(=O)c1cc(Oc2ccc(NC(=O)Nc3ccc(Cl)c(C(F)(F)F)c3)cc2)ccn1 [Sorafenib Tosylate] |  | 3.9 µM | 81.9% | 
O=C(OC[C@H]1O[C@@H](OC(=O)c2cc(O)c(O)c(OC(=O)c3cc(O)c(O)c(O)c3)c2)[C@H](OC(=O)c2cc(O)c(O)c(OC(=O)c3cc(O)c(O)c(O)c3)c2)[C@@H](OC(=O)c2cc(O)c(O)c(OC(=O)c3cc(O)c(O)c(O)c3)c2)[C@@H]1OC(=O)c1cc(O)c(O)c(OC(=O)c2cc(O)c(O)c(O)c2)c1)c1cc(O)c(O)c(OC(=O)c2cc(O)c(O)c(O)c2)c1 [Tannic Acid] |  |  | 54.3% | 
CC(=O)OC[C@H]1O[C@@H]([S-])[C@H](OC(C)=O)[C@@H](OC(C)=O)[C@@H]1OC(C)=O.CCP(CC)CC.[Au+] [Auranofin] |  |  |  | IC50 (read-out: IC50): < 1 µM
Oc1c(Cl)cc(Cl)c(Cl)c1Cc1c(O)c(Cl)cc(Cl)c1Cl [Hexachlorophene] |  | 3.2 µM | 71.3% | 
COCc1c(C(C)C)nc(C(C)C)c(/C=C/[C@@H](O)C[C@@H](O)CC(=O)O)c1-c1ccc(F)cc1 [Cerivastatin Sodium] |  | 0.1 µM | 44.3% | 
COc1cc2c(cc1OC)[C@@H]1C(=O)c3ccc4c(c3O[C@@H]1CO2)C=CC(C)(C)O4 [Deguelin] |  | 0.5 µM | 41.8% | 
N=C(N)c1ccc(OCCCCCOc2ccc(C(=N)N)cc2)cc1 [Pentamidine] |  | 10.5 µM | 42.2% | 
C#C[C@]1(O)CC[C@H]2[C@@H]3CCc4cc(OC5CCCC5)ccc4[C@H]3CC[C@@]21C [Quinestrol] |  | 7.2 µM | 54.9% | 
NCCNS(=O)(=O)c1ccc(Cl)c2ccncc12 [CKI7] | 0.565 |  |  | IC50 (read-out: IC50): 10.7 µM
CC[C@H](C)[C@H](NC(=O)[C@H]([C@@H](C)CC)N(C)C(C)=O)C(=O)N[C@H](C(=O)N[C@@H](CC(C)C)C(=O)[C@@]1(C)CO1)[C@@H](C)O [Epoxomicin] | 0.466 |  |  | 
CN(C)CCOc1ccc(/C(=C(/CCCl)c2ccccc2)c2ccccc2)cc1 [Toremifene] | 0.461 |  |  | IC50: 2.7 µM
CC[C@H]1CN2CCc3cc(OC)c(OC)cc3[C@@H]2C[C@@H]1C[C@H]1NCCc2cc(OC)c(OC)cc21 [Emetine dihydrochloride hydrate] |  | 0.3 µM | 89.3% | 
CC(C(=O)[O-])c1cccc(Oc2ccccc2)c1.CC(C(=O)[O-])c1cccc(Oc2ccccc2)c1.[Ca+2] (stereo not shown) [Fenoprofen Calcium] | 0.454 |  |  | 
CCCN1C[C@H](CSC)C[C@@H]2c3cccc4[nH]cc(c34)C[C@H]21 [Pergolide Mesylate] |  |  | 38.3% | 
CC(=O)N[C@@H](CC(C)C)C(=O)N[C@@H](CC(C)C)C(=O)N[C@H](C=O)CCCNC(=N)N [Leupeptin HCl] |  | 3.2 µM | 86.5% | 

Compound | Max Effect | IC50 (Zaire ebolavirus, Vero) | Emax (Zaire ebolavirus, Vero) | other results
CCOC(=O)C1=C(COCCN)NC(C)=C(C(=O)OC)C1c1ccccc1Cl (stereo not shown) [Amlodipine Besylate] |  | 13.2 µM | 52.8% | 
O=C(Nc1ccc([N+](=O)[O-])cc1Cl)c1cc(Cl)ccc1O [Niclosamide] |  | 2.6 µM | 84.2% | 
CN1CCC(=C2c3ccccc3C=Cc3ccccc32)CC1 [Cyproheptadine Hydrochloride] |  |  | 49.3% | 
Clc1cc(Cl)c(OCC#CI)cc1Cl [Haloprogin] |  | 2.9 µM | 58.8% | 
CC(C)c1nc(CN(C)C(=O)N[C@H](C(=O)N[C@@H](Cc2ccccc2)C[C@H](O)[C@H](Cc2ccccc2)NC(=O)OCc2cncs2)C(C)C)cs1 [Ritonavir] |  |  | 48.5% | 
Fc1ccc(C(c2ccc(F)cc2)N2CCN(C/C=C/c3ccccc3)CC2)cc1 [Flunarizine Hydrochloride] |  |  | 40.2% | 
C=CC(C)(C)c1cc(/C=C/C(=O)c2ccc(O)cc2)c(OC)cc1O [Licochalcone-A] | 0.522 |  |  | IC50 (read-out: IC50): 4.7 µM
CCCCCCCCCCCCCC(=O)O[C@@H]1[C@@H](C)[C@@]2(O)[C@@H](C=C(CO)C[C@]3(O)C(=O)C(C)=C[C@@H]23)[C@@H]2C(C)(C)[C@]12OC(C)=O [PMA] | 0.800 |  |  | IC50 (read-out: IC50): < 0.18 µM
CC(C)[C@]12O[C@H]1[C@@H]1O[C@]13[C@]1(O[C@H]1C[C@H]1C4=C(CC[C@@]13C)C(=O)OC4)[C@@H]2O [Triptolide] |  | < 0.1 µM | 85% | 
O=[N+]([O-])c1ccccc1OCCCCCOc1ccccc1[N+](=O)[O-] [1,5′-Bis(2-Nitrophenoxy)pentane] | 0.531 |  |  | IC50 (read-out: IC50): 13 µM
O=C(c1ccc(OCCN2CCCCC2)cc1)c1c(-c2ccc(O)cc2)sc2cc(O)ccc12 [Raloxifene Hydrochloride] |  | 2.4 µM | 69.1% | 
CCN(CC)CCNC(=O)c1c(C)[nH]c(/C=C2\C(=O)Nc3ccc(F)cc32)c1C [Sunitinib Malate] |  | 4.4 µM | 78.8% | 
COc1cc(C=C2CCCC(=Cc3ccc(O)c(OC)c3)C2=O)ccc1O [2,6-Divanillylidenecyclohexanone] |  | 6.4 µM | 93.2% | 
Chondroitin Sulfate | 0.535 |  |  | IC50 (read-out: IC50): 11.4 µM
O=C(O)Cc1cc(I)c(Oc2ccc(O)c(I)c2)c(I)c1 [Tiratricol] |  |  | 47.8% | 
C/C1=C/C(=O)O[C@@H]2C[C@@H](CC[C@H](C)/C=C\CC1)O[C@@](O)([C@@H]1CSC(=O)N1)C2 [Latrunculin B] | 0.621 |  |  | IC50 (read-out: IC50): 0.4 µM
CC/C(=C(\c1ccccc1)c1ccc(OCCN(C)C)cc1)c1ccccc1 [Tamoxifen] |  |  | 90% | 
Acetophenazine Maleate | 0.478 |  |  | 
Antimycin A | 0.850 |  |  | IC50 (read-out: IC50): < 0.04 µM
CO[C@@H]1[C@@H](OC)[C@H](C)[C@@](O)(CC(=O)O)O[C@H]1[C@H](C)[C@H]1O[C@@]2(CC[C@@](C)([C@H]3CC[C@@](C)([C@@H]4O[C@@H]([C@H]5O[C@](C)(O)[C@H](C)C[C@@H]5C)C[C@@H]4O[C@@H]4C[C@H](OC)[C@@H](OC)[C@H](C)O4)O3)O2)C[C@H](O)[C@H]1C [Maduramicin NH4] |  |  | 45.2% | 
CN1CCCC(n2nc(Cc3ccc(Cl)cc3)c3ccccc3c2=O)CC1 (stereo not shown) [Azelastine] |  | 122 µM | 64.8% | 
C[C@H]1CCC/C=C/[C@@H]2C[C@H](O)C[C@H]2[C@H](O)/C=C/C(=O)O1 [Brefeldin A] | 0.900 |  |  | IC50 (read-out: IC50): < 1.6 µM
